The source of these data is US5464617A, “β-lactam compounds” (Hoffmann-La Roche Inc., priority 1994, dated 1995).

Structures can show the parent of a compound that is named as a salt.

Test [1] deals with Citrobacter freundii 1982. The test can be described thus: MIC in vitro of a 1:4 combination of ceftriaxone with a compound of formula I (Test D). The format is cell-based. As to conditions: for MIC C. freundii 1982 (D): test D; for MIC C. freundii 1982: Table 2. On the procedure:
The minimum inhibitory concentration in vitro ([…]) of a 1:4 combination of ceftriaxone with a compound of formula I against Citrobacter freundii 1982 was measured and compiled in Table 2 hereinafter.

The next test has as its system E. coli 1346. Description: Antibacterial activity of the products per se, serial dilution method in liquid medium (Test E). The format is cell-based. The following applies: product per se; for MIC E. coli 1346 (E): test E; for MIC E. coli 1346: Table 3, liquid medium. The source says: The antibacterial activity of the products per se is illustrated on the basis of Table 3 hereinafter, the minimum inhibitory concentration […] in vitro against E. coli 1346 being determined using the serial dilution method in liquid medium: […]

Where [2] appears, read: Table 4, 1:4 combination of ceftriaxone with the compound.
[3] abbreviates: 1:4 combination of ceftriaxone with the compound.

`NC(=O)OCC1=C(C(=O)O)N2C(=O)[C@@H]3[C@H]2[C@H](C1)CN3C(=O)Nc1ccc(O)cc1` [27(a), (1aS,3aR,6bR)-5-Carbamoyloxymethyl-2-(4-hydroxyphenylcarbamoyl)-1-oxo-1a,2,3,3a,4,6b-hexahydro-1H-2,6a-diazacyclobut[cd]indene-6-carboxylic add sodium salt]: the “MIC C. freundii 1982 (D)” value in test [1] (Table 5, particularly preferred products, 1:4 combination with ceftriaxone) is at most 0.06 µg/mL. For the same compound, the “MIC E. coli 1346 (E)” value against E. coli 1346 (Table 5, particularly preferred products) is over 32 µg/mL.

Take `CC(=O)N1C[C@H]2CC(Sc3ccncc3)=C(C(=O)O)N3C(=O)[C@@H]1[C@@H]23` [Example 3(ah), (1aS,3aR,6bR)-2-Acetyl-1-oxo-5-(pyridin-4-ylsulphanyl)-1a,2,3,3a,4,6b-hexahydro-1H-2,6a-diazacyclobut[cd]indene-6-carboxylic acid sodium salt]: the “MIC C. freundii 1982 (D)” value in test [1] (setting [2]) was determined as 2 µg/mL. Further, the “MIC E. coli 1346 (E)” value with E. coli 1346 (Table 4) came to 8 µg/mL.

With `NC(=O)OCC1=C(C(=O)O)N2C(=O)[C@@H]3[C@H]2[C@H](C1)CN3C(=O)NCCc1cccs1` [27(g), (1aS,3aR,6bR)-5-Carbamoyloxymethyl-1-oxo-2-(2-thiophen-2-yl-ethylcarbamoyl)-1a,2,3,3a,4,6b-hexahydro-1H-2,6a-diazacyclobut[cd]indene-6-carboxylic acid sodium salt], in test [1] (setting [2]), the “MIC C. freundii 1982 (D)” value worked out at 0.5 µg/mL. Also, in the test on E. coli 1346 (Table 4), the “MIC E. coli 1346 (E)” value is over 32 µg/mL.

As to `CC(=O)N1C[C@H]2CC(SCc3n(C)nc[n+]3C)=C(C(=O)[O-])N3C(=O)[C@@H]1[C@@H]23` [3(ao), (1aS,3aR,6bR)-2-Acetyl-5-[(1,4-dimethyl-1H-1,2,4-triazol-5-ylio)-methylsulphanyl]-1-oxo-1a,2,3,3a,4,6b-hexahydro-1H-2,6a-diazacyclobut[cd]indene-6-carboxylate], in test [1] (setting [2]), the “MIC C. freundii 1982 (D)” value turned out to be 8 µg/mL. For the same compound, in the test on E. coli 1346 (Table 4), the “MIC E. coli 1346 (E)” value was over 32 µg/mL.

In the case of `Cn1nnnc1SCC1=C(C(=O)O)N2C(=O)[C@@H]3[C@H]2[C@H](C1)CN3C(=O)Nc1ccc(O)cc1` [18(a), (1aS,3aR,6bR)-2-(4-Hydroxy-phenylcarbamoyl)-5-(1-methyl-1H-tetrazol-5-ylsulphanylmethyl)-1-oxo-1a,2,3,3a,4,6b-hexahydro-1H-2,6a-diazacyclobut[cd]indene-6-carboxylic acid sodium salt], the “MIC C. freundii 1982” value in test [1] (setting [3]) came out at 0.25 µg/mL. For the same compound, the “MIC E. coli 1346” value with E. coli 1346 was 32 µg/mL.

Turning to `CC(=O)N1C[C@H]2CC(COC(=O)NCc3ccncc3)=C(C(=O)O)N3C(=O)[C@@H]1[C@@H]23` [100(a), (1aS,3aR,6bR)-2-Acetyl-1-oxo-5-(pyridin-4-ylmethylcarbamoyloxymethyl)-1a,2,3,3a,4,6b-hexahydro-1H-2,6a-diazacyclobut[cd]indene-6-carboxylic acid sodium salt], in test [1] (setting [2]), the “MIC C. freundii 1982 (D)” value turned out to be 1 µg/mL. Moreover, the “MIC E. coli 1346 (E)” value in the test with E. coli 1346 (Table 4) came to 1 µg/mL.

As for `NC(=O)OCC1=C(C(=O)O)N2C(=O)[C@@H]3[C@H]2[C@H](C1)CN3C(=O)NC1CC1` [27(d), (1aS,3aR,6bR)-5-Carbamoyloxymethyl-2-cyclopropylcarbarmoyl-1-oxo-1a,2,3,3a,4,6b-hexahydro-1H-2,6a-diazacyclobut[cd]indene-6-carboxylic acid sodium salt], the “MIC C. freundii 1982 (D)” value in test [1] (setting [2]) stood at 0.25 µg/mL. Also, the “MIC E. coli 1346 (E)” value in the test with E. coli 1346 (Table 4) amounted to 32 µg/mL.

With `CC(=O)N1C[C@H]2CC(CSc3nnc(C)s3)=C(C(=O)O)N3C(=O)[C@@H]1[C@@H]23` [65(a), (1aS,3aR,6bR)-2-Acetyl-5-(5-methyl-1,3,4-thiadiazol-2-ylsulphanylmethyl)-1-oxo-1a,2,3,3a,4,6b-hexahydro-1H-2,6a-diazacyclobut[cd]indene-6-carboxylic acid sodium salt], the “MIC C. freundii 1982 (D)” value in test [1] (setting [2]) was found to be 1 µg/mL. For the same compound, the “MIC E. coli 1346 (E)” value against E. coli 1346 (Table 4) came out at 0.5 µg/mL.

As to `C=CCN1C[C@H]2OC(CSc3nnnn3C)=C(C(=O)O)N3C(=O)[C@@H]1[C@@H]23` [Example 30, (1aS,3aR,6bS)-2-Allyl-5-(1-methyl-1H-tetrazol-5-ylsulphanylmethyl)-1-oxo-4-oxa-1,1a,2,3,3a,6b-hexahydro-2,6a-diazacyclobut[cd]indene-6-carboxylic acid sodium salt], the “MIC C. freundii 1982 (D)” value in test [1] (setting [2]) is 1 µg/mL. The “MIC E. coli 1346 (E)” value against E. coli 1346 (Table 4) came out at 8 µg/mL.

In the case of `CC(=O)N1C[C@H]2CC(CN=[N+]=[N-])=C(C(=O)O)N3C(=O)[C@@H]1[C@@H]23` [83(a), (1aS,3aR,6bR)-2-Acetyl-5-azidomethyl-1-oxo-1a,2,3,3a,4,6b-hexahydro-1H-2,6a-diazacyclobut[cd]indene-6-carboxylic acid sodium salt], the “MIC C. freundii 1982 (D)” value in test [1] (setting [2]) came out at 0.5 µg/mL. The “MIC E. coli 1346 (E)” value against E. coli 1346 (Table 4) stood at 2 µg/mL.

In the case of `CS(=O)(=O)NCC1=C(C(=O)O)N2C(=O)[C@@H]3[C@H]2[C@H](C1)CN3C(=O)C(F)(F)F` [88(b), (1aS,3aR,6bR)-5-Methylsulphonylaminomethyl-1-oxo-2-trifluoroacetyl-1a,2,3,3a,4,6b-hexahydro-1H-2,6a-diazacyclobut[cd]indene-6-carboxylic acid sodium salt], the “MIC C. freundii 1982 (D)” value in test [1] (setting [2]) turned out to be 2 µg/mL. Further, in the test with E. coli 1346 (Table 4), the “MIC E. coli 1346 (E)” value was 4 µg/mL.

For `NC(=O)OCC1=C(C(=O)O)N2C(=O)[C@@H]3[C@H]2[C@H](C1)CN3C(=O)CNc1ccccc1` [58(h), (1aS,3aR,6bR)-5-Carbamoyloxymethyl-1-oxo-2-phenylaminoacetyl-1a,2,3,3a,4,6b-hexahydro-1 H-2,6a-diazacyclobut[cd]indene-6-carboxylic acid sodium salt], the “MIC C. freundii 1982 (D)” value in test [1] (setting [2]) came out at 1 µg/mL. Moreover, in the test with E. coli 1346 (Table 4), the “MIC E. coli 1346 (E)” value turned out to be 32 µg/mL.

In the case of `NC(=O)Cn1nnnc1SCC1=C(C(=O)O)N2C(=O)[C@H]3NC[C@@H](C1)[C@H]32` [Example 69, (1aS,3aR,6 bR)-5-(1-Carbamoylmethyl-1H-tetrazol-5-ylsulphanylmethyl)-1-oxo-1a,2,3,3a,4,61>hexahydro-1H-2,6a-diazacyclobut[cd]indene-6-carboxylic acid trifluoroacetate], the “MIC C. freundii 1982 (D)” value in test [1] (setting [2]) was 0.5 µg/mL. Besides, the “MIC E. coli 1346 (E)” value in the test with E. coli 1346 (Table 4) amounted to 2 µg/mL.

Turning to `NC(=O)c1ccc(NC(=O)N2C[C@H]3CC(Sc4ccncc4)=C(C(=O)O)N4C(=O)[C@@H]2[C@@H]34)cc1` [3(n), (1aS,3aR,6bR)-2-(4-Carbamoyl-phenylcarbamoyl)-1-oxo-5-(pyridin-4-ylsulphanyl)-1a,2,3,3a,4,6b-hexahydro-1H-2,6a-diazacyclobut[cd]indene-6-carboxylic acid sodium salt], the “MIC C. freundii 1982 (D)” value in test [1] (setting [2]) is 1 µg/mL. Besides, in the test on E. coli 1346 (Table 4), the “MIC E. coli 1346 (E)” value was over 32 µg/mL.

`NC(=O)OCC1=C(C(=O)O)N2C(=O)[C@@H]3[C@H]2[C@H](C1)CN3C(=O)NCc1ccccc1` [Example 27(c), (1aS,3aR,6bR)-2-Benzylcarbamoyl-5-carbamoyloxymethyl-1-oxo-1a,2,3,3a,4,6b-hexahydro-1H-2,6a-diazacyclobut[cd]indene-6-carboxylic acid sodium salt]: the “MIC C. freundii 1982 (D)” value in test [1] (setting [2]) was found to be 0.25 µg/mL. Besides, the “MIC E. coli 1346 (E)” value with E. coli 1346 (Table 4) was over 32 µg/mL.

For the compound `N#C/C=C\C1=C(C(=O)O)N2C(=O)[C@H]3NC[C@@H](C1)[C@H]32` [48(a), (Z)-(1aS,3aR,6bR)-5-(2-Cyanovinyl)-1-oxo-1a,2,3,3a,4,6b-hexahydro-1H-2,6a-diazacyclobut[cd]indene-6-carboxylic acid trifluoroacetate], in test [1] (setting [2]), the “MIC C. freundii 1982 (D)” value was found to be 4 µg/mL. Besides, the “MIC E. coli 1346 (E)” value in the test on E. coli 1346 (Table 4) was determined as 16 µg/mL.

For the compound `O=C(NCc1ccc(O)cc1)OCC1=C(C(=O)O)N2C(=O)[C@@H]3[C@H]2[C@H](C1)CN3C(=O)C(F)(F)F` [102(b), (1aS,3aR,6bR)-5-[(4-Hydroxy-benzyl)-carbamoyloxymethyl]-2-trifluoroacetyl-1-oxo-1a,2,3,3a,4,6b-hexahydro-1H-2,6a-diazacyclobut[cd]indene-6-carboxylicacid sodium salt], the “MIC C. freundii 1982 (D)” value in test [1] (setting [2]) was found to be 2 µg/mL. Further, the “MIC E. coli 1346 (E)” value in the test with E. coli 1346 (Table 4) came to 1 µg/mL.

Take `Nc1nnc(SCC2=C(C(=O)O)N3C(=O)[C@H]4NC[C@@H](O2)[C@H]43)s1` [Example 29(c), (1aS,3aR,6bS)-S-(S-Amino-1,3,4-thiadiazol-2-yl-sulphanylmethyl)-1-oxo-4-oxa-1,1a,2,3,3a,6b-hexahydro-2,6a-diazacyclobut[cd]indene-6-carboxylic acid sodium salt]: the “MIC C. freundii 1982 (D)” value in test [1] (setting [2]) was found to be 0.5 µg/mL. Also, in the test on E. coli 1346 (Table 4), the “MIC E. coli 1346 (E)” value was determined as 2 µg/mL.

On to `CC(=O)N1C[C@H]2CC(SCC(N)=O)=C(C(=O)O)N3C(=O)[C@@H]1[C@@H]23` [3(ak), (1 aS,3aR,6bR)-2-Acetyl-5-carbamoylmethylsulphanyl-1-oxo-1a,2,3,3a,4,6b-hexahydro-1H-2,6a-diazacyclobut[cd]indene-6-carboxylic acid sodium salt], for which the “MIC C. freundii 1982 (D)” value in test [1] (setting [2]) turned out to be 4 µg/mL. Further, in the test on E. coli 1346 (Table 4), the “MIC E. coli 1346 (E)” value was 16 µg/mL.

For `Cc1nnc(SCC2=C(C(=O)O)N3C(=O)[C@@H]4[C@H]3[C@H](C2)CN4C(=O)Nc2ccc(O)cc2)s1` [Example 64, (1aS,3aR,6bR)-2-(4-Hydroxy-phenylcarbamoyl)-5-(5-methyl-1,3,4-thiadiazol-2-ylsulphanylmethyl)-1-oxo-1a,2,3,3a,4,6b-hexahydro-1H-2,6a-diazacyclobut[cd]indene-6-carboxylic acid sodium salt], in test [1] (setting [2]), the “MIC C. freundii 1982 (D)” value is 0.5 µg/mL. For the same compound, the “MIC E. coli 1346 (E)” value with E. coli 1346 (Table 4) is over 32 µg/mL.

Regarding `CS(=O)(=O)OC1=C(C(=O)O)N2C(=O)[C@@H]3[C@H]2[C@H](C1)CN3C(=O)Nc1ccc(C(N)=O)cc1` [9(b), (1aS,3aR,6bR)-2-(4-Carbamoyl-phenylcarbamoyl)-5-methylsulphonyloxy-1-oxo-1a, 2,3,3a,4,6b-hexahydro-1H-2,6a-diazacyclobut[cd]indene-6-carboxylic acid sodium salt], the “MIC C. freundii 1982” value in test [1] (setting [3]) was determined as 0.25 µg/mL. Also, in the test with E. coli 1346, the “MIC E. coli 1346” value was determined as 0.5 µg/mL.
